# Reference: article PMC7915588, “Polyphyllin D Shows Anticancer Effect through a Selective Inhibition of Src Homology Region 2-Containing Protein Tyrosine Phosphatase-2 (SHP2)” (Molecules, 2021)
# Assays:
# Assay in all cases: biochemical
# Parameters in all cases: Fluorogenic phosphatase assay, DiFMUP hydrolysis by recombinant PTPs, initial velocity, Ex/Em 355/460 nm
# Conditions in all cases: read-out: Inhibition by 20 µM polyphyllin D (%)
# PTPN7 (HePTP) = molecular target: T1, PTPN7 (HePTP) (Homo sapiens, UniProt P35236)
# T1 construct: 1-360
# T1 sequence (P35236 1-360): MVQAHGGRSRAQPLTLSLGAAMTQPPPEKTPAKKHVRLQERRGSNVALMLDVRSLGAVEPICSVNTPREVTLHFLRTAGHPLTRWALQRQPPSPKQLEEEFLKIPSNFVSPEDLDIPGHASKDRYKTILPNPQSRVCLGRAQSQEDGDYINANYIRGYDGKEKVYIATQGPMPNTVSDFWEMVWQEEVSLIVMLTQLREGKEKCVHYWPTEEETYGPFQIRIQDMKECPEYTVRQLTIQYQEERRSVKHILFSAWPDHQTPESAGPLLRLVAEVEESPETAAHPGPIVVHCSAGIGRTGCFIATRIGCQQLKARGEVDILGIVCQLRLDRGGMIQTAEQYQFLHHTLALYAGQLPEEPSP
# PTPN13 (PTP-BAS) = molecular target: T2, PTPN13 (PTP-BAS) (Homo sapiens, UniProt Q12923)
# T2 construct: 2095-2490
# SHP1 = molecular target: T3, SHP1 (Homo sapiens, UniProt P29350)
# T3 construct: gene PTPN6
# PTPN18 (PTP-HSCF) = molecular target: T4, PTPN18 (PTP-HSCF) (Homo sapiens, UniProt Q99952)
# T4 construct: 1-300
# T4 sequence (Q99952 1-460): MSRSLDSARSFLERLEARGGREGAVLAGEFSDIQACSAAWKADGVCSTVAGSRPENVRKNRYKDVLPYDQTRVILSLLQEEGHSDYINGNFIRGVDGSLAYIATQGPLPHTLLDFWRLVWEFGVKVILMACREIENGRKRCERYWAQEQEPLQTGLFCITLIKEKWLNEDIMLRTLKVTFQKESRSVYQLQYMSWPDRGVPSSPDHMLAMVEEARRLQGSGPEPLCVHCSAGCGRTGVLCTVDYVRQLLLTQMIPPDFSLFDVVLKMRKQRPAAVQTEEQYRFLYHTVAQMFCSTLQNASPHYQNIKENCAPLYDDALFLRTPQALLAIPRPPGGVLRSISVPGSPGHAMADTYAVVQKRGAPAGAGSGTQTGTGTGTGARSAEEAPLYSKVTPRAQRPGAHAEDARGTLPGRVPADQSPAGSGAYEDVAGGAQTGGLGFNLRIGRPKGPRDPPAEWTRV
# PTPN1 (PTP1B) = molecular target: T5, PTPN1 (PTP1B) (Homo sapiens, UniProt P18031)
# T5 construct: 1-299
# T5 sequence (P18031 1-435): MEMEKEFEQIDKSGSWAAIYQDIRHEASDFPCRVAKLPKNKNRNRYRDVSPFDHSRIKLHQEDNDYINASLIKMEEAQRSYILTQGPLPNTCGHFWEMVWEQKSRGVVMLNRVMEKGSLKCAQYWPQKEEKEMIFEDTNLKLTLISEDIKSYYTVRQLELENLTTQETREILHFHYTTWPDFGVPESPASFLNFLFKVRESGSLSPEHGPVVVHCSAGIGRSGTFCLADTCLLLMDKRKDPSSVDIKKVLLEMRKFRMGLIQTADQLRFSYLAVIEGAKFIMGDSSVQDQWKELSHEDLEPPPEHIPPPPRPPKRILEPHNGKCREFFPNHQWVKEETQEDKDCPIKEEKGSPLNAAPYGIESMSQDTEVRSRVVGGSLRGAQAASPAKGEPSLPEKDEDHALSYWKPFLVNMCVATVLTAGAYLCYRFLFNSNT
# T3 sequence (P29350 whole entry): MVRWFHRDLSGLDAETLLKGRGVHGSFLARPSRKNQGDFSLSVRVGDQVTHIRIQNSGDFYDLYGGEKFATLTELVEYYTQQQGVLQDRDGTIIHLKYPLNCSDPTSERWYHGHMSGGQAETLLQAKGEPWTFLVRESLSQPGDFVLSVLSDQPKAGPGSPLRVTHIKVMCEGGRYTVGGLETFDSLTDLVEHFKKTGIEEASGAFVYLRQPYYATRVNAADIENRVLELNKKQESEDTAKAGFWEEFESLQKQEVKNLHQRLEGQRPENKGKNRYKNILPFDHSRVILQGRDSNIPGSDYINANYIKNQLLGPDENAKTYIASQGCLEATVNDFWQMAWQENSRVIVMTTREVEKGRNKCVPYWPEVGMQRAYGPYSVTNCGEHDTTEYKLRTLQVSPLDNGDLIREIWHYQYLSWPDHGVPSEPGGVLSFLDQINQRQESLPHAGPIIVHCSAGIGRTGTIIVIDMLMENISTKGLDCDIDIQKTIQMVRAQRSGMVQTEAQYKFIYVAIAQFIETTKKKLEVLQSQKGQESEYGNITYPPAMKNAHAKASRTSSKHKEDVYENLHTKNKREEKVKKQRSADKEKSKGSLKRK
# T2 sequence (Q12923 whole entry): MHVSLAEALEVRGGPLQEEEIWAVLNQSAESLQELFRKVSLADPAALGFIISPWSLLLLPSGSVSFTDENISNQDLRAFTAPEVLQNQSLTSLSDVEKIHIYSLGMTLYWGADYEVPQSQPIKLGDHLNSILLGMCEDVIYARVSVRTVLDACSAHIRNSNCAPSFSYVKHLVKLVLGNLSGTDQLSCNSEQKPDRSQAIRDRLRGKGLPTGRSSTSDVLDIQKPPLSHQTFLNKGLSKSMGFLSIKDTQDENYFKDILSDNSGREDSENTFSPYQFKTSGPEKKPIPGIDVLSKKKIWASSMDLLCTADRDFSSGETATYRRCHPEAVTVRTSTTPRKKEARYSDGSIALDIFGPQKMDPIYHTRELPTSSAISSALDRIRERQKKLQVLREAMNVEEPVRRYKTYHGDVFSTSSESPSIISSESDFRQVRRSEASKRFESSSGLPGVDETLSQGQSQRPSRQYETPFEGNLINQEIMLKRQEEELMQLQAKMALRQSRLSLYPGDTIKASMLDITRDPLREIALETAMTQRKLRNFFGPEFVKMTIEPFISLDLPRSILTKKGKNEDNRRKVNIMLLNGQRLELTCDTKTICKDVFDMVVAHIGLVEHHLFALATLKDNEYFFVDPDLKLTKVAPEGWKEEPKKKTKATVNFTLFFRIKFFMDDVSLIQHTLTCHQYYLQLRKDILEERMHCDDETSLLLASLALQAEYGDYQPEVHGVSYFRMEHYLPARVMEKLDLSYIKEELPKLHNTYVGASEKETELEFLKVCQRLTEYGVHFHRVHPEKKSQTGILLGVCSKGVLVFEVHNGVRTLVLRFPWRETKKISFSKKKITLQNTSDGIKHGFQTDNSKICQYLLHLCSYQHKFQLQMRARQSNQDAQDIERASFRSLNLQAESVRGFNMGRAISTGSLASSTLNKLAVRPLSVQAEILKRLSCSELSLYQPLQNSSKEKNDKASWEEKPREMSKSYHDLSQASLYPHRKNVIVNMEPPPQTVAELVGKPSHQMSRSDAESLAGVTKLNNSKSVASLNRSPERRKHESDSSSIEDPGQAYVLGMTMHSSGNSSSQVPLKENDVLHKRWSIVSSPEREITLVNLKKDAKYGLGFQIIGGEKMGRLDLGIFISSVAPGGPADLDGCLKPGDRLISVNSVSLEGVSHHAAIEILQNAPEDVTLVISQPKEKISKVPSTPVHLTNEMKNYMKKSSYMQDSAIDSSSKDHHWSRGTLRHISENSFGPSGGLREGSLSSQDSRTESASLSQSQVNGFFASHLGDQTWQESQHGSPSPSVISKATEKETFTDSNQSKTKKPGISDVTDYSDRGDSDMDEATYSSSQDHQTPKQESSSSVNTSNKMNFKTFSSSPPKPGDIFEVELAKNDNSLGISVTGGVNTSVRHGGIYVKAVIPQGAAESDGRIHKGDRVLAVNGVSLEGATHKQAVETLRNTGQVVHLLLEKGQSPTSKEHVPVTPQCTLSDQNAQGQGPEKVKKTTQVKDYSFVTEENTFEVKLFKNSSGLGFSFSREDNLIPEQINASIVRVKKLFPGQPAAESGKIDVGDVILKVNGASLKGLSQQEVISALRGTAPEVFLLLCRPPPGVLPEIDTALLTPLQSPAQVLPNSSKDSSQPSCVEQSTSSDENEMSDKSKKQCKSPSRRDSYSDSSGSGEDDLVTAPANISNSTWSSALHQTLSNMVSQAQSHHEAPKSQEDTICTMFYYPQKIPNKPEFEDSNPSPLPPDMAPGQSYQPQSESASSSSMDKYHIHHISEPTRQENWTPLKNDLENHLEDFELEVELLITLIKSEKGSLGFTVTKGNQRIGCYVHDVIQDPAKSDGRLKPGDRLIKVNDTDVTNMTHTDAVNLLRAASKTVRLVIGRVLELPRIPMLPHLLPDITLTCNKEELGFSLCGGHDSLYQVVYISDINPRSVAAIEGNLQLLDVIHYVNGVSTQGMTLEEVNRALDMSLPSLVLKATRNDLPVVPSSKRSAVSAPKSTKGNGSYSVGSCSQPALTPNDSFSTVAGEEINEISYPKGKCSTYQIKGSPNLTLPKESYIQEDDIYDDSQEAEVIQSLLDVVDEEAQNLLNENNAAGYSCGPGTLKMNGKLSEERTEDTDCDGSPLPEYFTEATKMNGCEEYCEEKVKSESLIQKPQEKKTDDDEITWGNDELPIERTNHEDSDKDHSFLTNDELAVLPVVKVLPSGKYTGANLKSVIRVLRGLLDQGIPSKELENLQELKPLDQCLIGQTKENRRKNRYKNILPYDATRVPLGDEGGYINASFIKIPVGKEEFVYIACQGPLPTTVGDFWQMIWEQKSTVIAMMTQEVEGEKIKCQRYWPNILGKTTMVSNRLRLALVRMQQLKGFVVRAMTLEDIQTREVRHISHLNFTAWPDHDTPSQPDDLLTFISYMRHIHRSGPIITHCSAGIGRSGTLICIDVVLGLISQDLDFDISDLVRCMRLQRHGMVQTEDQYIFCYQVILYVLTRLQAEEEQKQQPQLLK
smiles,measurement,setting,value
C[C@@H]1CC[C@@]2(OC1)O[C@H]1C[C@H]3[C@@H]4CC=C5C[C@@H](O[C@@H]6O[C@H](CO)[C@@H](O[C@@H]7O[C@@H](CO)[C@H](O)[C@H]7O)[C@H](O)[C@H]6O[C@@H]6O[C@@H](C)[C@H](O)[C@@H](O)[C@H]6O)CC[C@]5(C)[C@H]4CC[C@]3(C)[C@H]1[C@@H]2C [polyphyllin D],inhibition at 20 µM,PTPN7 (HePTP),9.2%
same,inhibition at 20 µM,PTPN13 (PTP-BAS),0%
same,inhibition at 20 µM,SHP1,0.1%
same,inhibition at 20 µM,PTPN18 (PTP-HSCF),14.2%
same,inhibition at 20 µM,PTPN1 (PTP1B),0%
